Earlier results on one compound are cited in patent US8846744B2, “Pharmaceutical compositions of co-crystals of tramadol and coxibs” (Laboratorios del Dr. Esteve, S.A., priority 2010, dated 2014).

Turning to `Cc1ccc(-c2cc(C(F)(F)F)nn2-c2ccc(S(N)(=O)=O)cc2)cc1` [Celecoxib, 4-[5-(4-methylphenyl)-3-(trifluoromethyl)pyrazol-1-yl]benzenesulfonamide], the “solubility in water” value is “practically insoluble”.
